# Experiment: recombinant UMI read abundance after kanamycin selection (control-corrected) (log10(CPM+1)); higher = more efficient recombination; extreme values may be limits of the assay; sequences stand for … in AGTGCAGAGAAAATCGGCCAGTTTTCTCTGCCTGCAGTCCGCATGCCGTGGGACCCCTTGGGTTCTAACCTGTTGCCTAGATTTATGCAGCGGACTGCCTTTCTCCCAAAGTGATAAACCGG…AGGTTGGTTTCACT; site = the 11-nt donor
# Procedure, shortened: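 Sequencing read counts were converted to CPM, averaged over two replicates and scaled by control-derived factors. Results are given as log10(CPM+1). The reads covered the donor–target junction of recombinant UMIs from a pooled Escherichia coli screen of donor and donor-binding-loop pairs for the IS621 bridge recombinase.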
# 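Note: IS621 bridge recombinase in Escherichia coli cells against a fixed T5 target plasmid.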
row,Sequence,recombinant UMI read abundance (log10)
1,CTCTACACATGGACCGGTTTTCCCGGTAATCCGTATTTGCT (site CTCTTCACTAG),0.548
2,CTCTACACATGGACCGGTTTTCCCGGTAATCCGTATTTGCT (site CTGTACACTAG),0.0999
3,CTCTACACATGGACCGGTTTTCCCGGTAATCCGTATTTGCT (site CTTTACACTAG),0.644
4,CTCTACACATGGACCGGTTTTCCCGGTAATCCGTATTTGCT (site GTCTACACTAG),0.232
5,CTCTACACATGGACCGGTTTTCCCGGTAATCCGTATTTGCT (site TTCTACACTAG),0.107
6,CTCTACACATGGACCGGTTTTCCCGGTAATCCGTATTTGTT (site CTCTACACTAA),0.93
7,CTCTACACATGGACCGGTTTTCCCGGTAATCCGTATTTGTT (site CTCTACACTAC),0.0026
8,CTCTACACATGGACCGGTTTTCCCGGTAATCCGTATTTGTT (site CTCTACACTAG),1.45
9,CTCTACACATGGACCGGTTTTCCCGGTAATCCGTATTTGTT (site CTCTACACTAT),0.616
10,CTCTACTCATGGACCGGTTTTCCCGGTAATCCGTATTTGCT (site CTCTACACTAG),0.869
11,CTCTACTCATGGACCGGTTTTCCCGGTAATCCGTATTTGCT (site CTCTACCCTAG),1.17
12,CTCTACTCATGGACCGGTTTTCCCGGTAATCCGTATTTGCT (site CTCTACGCTAG),0.00255
13,CTCTACTCATGGACCGGTTTTCCCGGTAATCCGTATTTGCT (site CTCTACTCTAG),2.5
14,CTCTAGCCATGGACCGGTTTTCCCGGTAATCCGTATTTGCC (site CACTAGCCTGG),0.69
15,CTCTAGCCATGGACCGGTTTTCCCGGTAATCCGTATTTGCC (site CCCTAGCCTGG),0
16,CTCTAGCCATGGACCGGTTTTCCCGGTAATCCGTATTTGCC (site CGCTAGCCTGG),0
17,CTCTAGCCATGGACCGGTTTTCCCGGTAATCCGTATTTGCC (site CTCTAGCCTGG),0
18,CTCTATACATGGACCGGTTTTCCCGGTAATCCGTATTTGAC (site ATCTATACTGT),0
19,CTCTATACATGGACCGGTTTTCCCGGTAATCCGTATTTGAC (site CTCTATACTGT),2.07
20,CTCTATACATGGACCGGTTTTCCCGGTAATCCGTATTTGAC (site GTCTATACTGT),0.00602
21,CTCTATACATGGACCGGTTTTCCCGGTAATCCGTATTTGAC (site TTCTATACTGT),0
22,CTCTCATCATGGACCGGTTTTCCCGGTAATCCGTATTTGCT (site CGATCATCTAG),0
23,CTCTCATCATGGACCGGTTTTCCCGGTAATCCGTATTTGCT (site CTCTCATCTAG),2.05

row,Sequence,recombinant UMI read abundance (log10)
1,CTCTCCACATGGACCGGTTTTCCCGGTAATCCGTATTTGTC (site CTCTCCACTGA),2.77
2,CTCTCGACATGGACCGGTTTTCCCGGTAATCCGTATTTGAC (site CTCTCGACTGT),1.34
3,CTCTGCCCATGGACCGGTTTTCCCGGTAATCCGTATTTGAT (site CTCTGCCCTAT),0.509
4,CTCTGGCCATGGACCGGTTTTCCCGGTAATCCGTATTTGCG (site CTCTGGCCTCG),0
5,CTCTTCTCATGGACCGGTTTTCCCGGTAATCCGTATTTGCT (site CTCTTCTCTAG),2.6
6,CTGAATTCATGGACCGGTTTTCCCGGTAATCCGTATTTGCC (site CTGAATTCTGG),1.06
7,CTGACATCATGGACCGGTTTTCCCGGTAATCCGTATTTGAG (site CTGACATCTCT),1.86
8,CTGACGACATGGACCGGTTTTCCCGGTAATCCGTATTTGCA (site CTGACGACTTG),1.71
9,CTGATACCATGGACCGGTTTTCCCGGTAATCCGTATTTGTA (site CTGATACCTTA),0.00514
10,CTGCAACCATGGACCGGTTTTCCCGGTAATCCGTATTTGCT (site CTGCAACCTAG),0.209
11,CTGCAACCATGGACCGGTTTTCCCGGTAATCCGTATTTGCT (site CTGCCACCTAG),0.0268
12,CTGCAACCATGGACCGGTTTTCCCGGTAATCCGTATTTGCT (site CTGCGACCTAG),0.00379
13,CTGCAACCATGGACCGGTTTTCCCGGTAATCCGTATTTGCT (site CTGCTACCTAG),0
14,CTGCATCCATGGACCGGTTTTCCCGGTAATCCGTATTTGTT (site CGGAATCCTAA),0.00365
15,CTGCATCCATGGACCGGTTTTCCCGGTAATCCGTATTTGTT (site CTGCATCCTAA),0.855
16,CTGCGACCATGGACCGGTTTTCCCGGTAATCCGTATTTGCT (site CTGCAACCTAG),0
17,CTGCGACCATGGACCGGTTTTCCCGGTAATCCGTATTTGCT (site CTGCCACCTAG),0.0046
18,CTGCGACCATGGACCGGTTTTCCCGGTAATCCGTATTTGCT (site CTGCGACCTAG),0
19,CTGCGACCATGGACCGGTTTTCCCGGTAATCCGTATTTGCT (site CTGCTACCTAG),0
20,CTGCGCTCATGGACCGGTTTTCCCGGTAATCCGTATTTGCG (site CTGCGCTCTCG),1.11
21,CTGCGTGCATGGACCGGTTTTCCCGGTAATCCGTATTTGTA (site CTGCGTGCTTA),2.28
22,CTGCTATCATGGACCGGTTTTCCCGGTAATCCGTATTTGAC (site CTAGTATCTGT),0
23,CTGCTATCATGGACCGGTTTTCCCGGTAATCCGTATTTGAC (site CTGCTATCTGT),1.26

row,Sequence,recombinant UMI read abundance (log10)
1,CTGCTCCCATGGACCGGTTTTCCCGGTAATCCGTATTTGCT (site CTGCTACCTAG),0
2,CTGCTCCCATGGACCGGTTTTCCCGGTAATCCGTATTTGCT (site CTGCTCCCTAG),1.78
3,CTGCTCCCATGGACCGGTTTTCCCGGTAATCCGTATTTGCT (site CTGCTGCCTAG),0
4,CTGCTCCCATGGACCGGTTTTCCCGGTAATCCGTATTTGCT (site CTGCTTCCTAG),0
5,CTGCTGCCATGGACCGGTTTTCCCGGTAATCCGTATTTGGC (site CTGCTGCCTGC),0
6,CTGGAAACATGGACCGGTTTTCCCGGTAATCCGTATTTGTA (site CTGGAAACTTA),2.14
7,CTGGAAACATGGACCGGTTTTCCCGGTAATCCGTATTTGTA (site CTGGAAACTTC),0.294
8,CTGGAAACATGGACCGGTTTTCCCGGTAATCCGTATTTGTA (site CTGGAAACTTG),1.22
9,CTGGAAACATGGACCGGTTTTCCCGGTAATCCGTATTTGTA (site CTGGAAACTTT),1.81
10,CTGGAAGCATGGACCGGTTTTCCCGGTAATCCGTATTTGCA (site CTGGAAACTTG),0.803
11,CTGGAAGCATGGACCGGTTTTCCCGGTAATCCGTATTTGCA (site CTGGAACCTTG),0
12,CTGGAAGCATGGACCGGTTTTCCCGGTAATCCGTATTTGCA (site CTGGAAGCTTG),1.04
13,CTGGAAGCATGGACCGGTTTTCCCGGTAATCCGTATTTGCA (site CTGGAATCTTG),3.42
14,CTGGACACATGGACCGGTTTTCCCGGTAATCCGTATTTGAG (site CTGGACACTCT),1.47
15,CTGGAGGCATGGACCGGTTTTCCCGGTAATCCGTATTTGTG (site ATGGAGGCTCA),0.00337
16,CTGGAGGCATGGACCGGTTTTCCCGGTAATCCGTATTTGTG (site CTGGAGGCTCA),1.02
17,CTGGAGGCATGGACCGGTTTTCCCGGTAATCCGTATTTGTG (site GTGGAGGCTCA),0.0315
18,CTGGAGGCATGGACCGGTTTTCCCGGTAATCCGTATTTGTG (site TTGGAGGCTCA),0.0143
19,CTGGATACATGGACCGGTTTTCCCGGTAATCCGTATTTGCA (site CTGGAAACTTG),1.14
20,CTGGATACATGGACCGGTTTTCCCGGTAATCCGTATTTGCA (site CTGGACACTTG),1.92
21,CTGGATACATGGACCGGTTTTCCCGGTAATCCGTATTTGCA (site CTGGAGACTTG),0.473
22,CTGGATACATGGACCGGTTTTCCCGGTAATCCGTATTTGCA (site CTGGATACTTG),1.81

# — the supplement of paper PMC11208160
